{"source": "patent US9308244B2", "about": "“Combination therapy using active immunotherapy” (immatics Biotechnologies GmbH, priority 2007, dated 2016)", "key": {"[1]": {"test_system": "OVA-001 specific CD8+ T-cells", "format": "in vivo, C57BL/6 mice", "conditions": "continuous treatment; for OVA-001 specific CD8+ T-cells, mean: OVA-001 immunized; for Immune response towards OVA-001 compared with vehicle treated controls (in words): both sorafenib dosages, high-dose (80 mg/kg bw) sunitinib, 80 mg/kg"}, "[2]": {"test_system": "HLA-A*02+ PBMCs (CD4+ and CD8+ effector cells)", "conditions": "absence of target cells or autologous target cells", "description": "Two fresh buffy coat (HLA-A*02+ and HLA-A*02−) were obtained from the Katharinenhospital Stuttgart. PBMCs were isolated by standard density gradient isolation and incubated overnight in T-cell medium (TCM) for human in vitro priming as in WP03 #4. Ca2+ and Mg2+ free PBS (Cambrex) washed HLA-A*02+ PBMCs were labeled at 1×10^7 cells/ml with 1 μM CFSE (Fluka, Buchs, Germany) at 37° C. for 4 minutes. Labeling was stopped by adding the same volume heat inactivated FCS (Invitrogen) and labeled cells were washed in TCM. Irradiation of target or feeder cells, if indicated, was performed at 33 Gy using a 1000 Elite gammacell (MDS Nordion, Ottawa, Canada). Stock solutions of sorafenib tosylate and sunitinib malate were prepared in DMSO (Merck, Darmstadt, Germany) and frozen aliquoted at −80° C. Mixed lymphocyte reactions were performed by coculturing 2×10^5 CFSE labeled effector plus 2×10^5 irradiated target cells as indicated per well of 96 well round bottom plates in 200 μl TCM in the presence of indicated concentrations of sorafenib, sunitinib or DMSO at 37° C. and 5% CO2 (day 1). On day 4, 100 μl supernatant was removed and 100 μl TCM supplemented with the original concentration of TKIs was added. […] Cells were washed, fixed in PFEA containing 1% formaldehyde (Fluka) and analyzed on a FACSCalibur (BD). […]"}, "[3]": {"assay": "HPLC quantification of TKI plasma levels in mouse models", "format": "in vivo", "conditions": "oral dosing", "procedure": "The proteins were precipitated with 40 μl 100% acetonitril (Acros, Geel, Belgium), centrifuged and filtered through a 0.2 μm PVDF filter. 10 μl was directly injected to the HPLC system.\nThe HPLC system consisted of a Binary HPLC pump (Shimadzu LC10aVP), a Shimadzu SIL-10aVP autosampler, a Shimadzu CTO-10asVP column oven and a Shimadzu SPD10aVP detector. Data acquisition and analysis was performed using the Shimadzu Class-VP 7.3 software. Chromatographic separation was carried out on a reverse phase C18 column (Reprosil Pur ODS-3μ, 60×2 mm). To protect the analytical column a guard column has been used (Reprosil Pur ODS-5μ, 10×2 mm). Eluent A consisted of water (LCMS grade, Acros, Geel, Belgium), modified by 0.1% formic acid (Merck, Darmstadt, Germany) and eluent B was 80% acetonitril (Acros, Geel, Belgium) with 0.1% formic acid (Merck, Darmstadt, Germany).\nThe following gradient was used: 5 min 25% eluent B, 15 min 62.5% eluent B, 6 min 80% eluent B and 5 min 80% eluent B. The temperature of the autosampler was kept at 4° C. The temperature of the column was maintained at 30° C. The detection wavelength was set at 400 nm, the injection volume was 10 μl. The column was equilibrated with the mobile phase at a flow rate 0.5 ml/min.\nFor Sorafenib analysis, 10 μl of 50% acetonitril (Acros, Geel, Belgium) was added to 50 serum or medium in 0.5 ml PCR tubes and mixed for 10 seconds. […]"}, "[4]": {"test_system": "CD4+ CD25+ Tregs, T cells, B cells, splenocytes", "assay": "Immune cell populations in spleen and PBMCs of TKI-treated mice", "format": "in vivo, C57BL/6 mice", "conditions": "4 weeks treatment"}, "[5]": {"test_system": "primary clear cell renal cell carcinoma (ccRCC)", "assay": "mRNA expression in primary ccRCC tumor tissue of a patient treated with sorafenib before surgery", "format": "in vivo, human", "description": "mRNA expression was measured as described in 1.1 except that mRNA from 20 primary clear cell renal cell carcinoma (ccRCC) samples of patients not treated with TKIs and 1 locally recurring ccRCC tumor sample of a patient having received sorafenib treatment (800 mg Nexavar™ per day starting 35 days before and stopping 2 days before surgery) previous to surgery were included in this analysis.\nTumor tissue specimens were snap-frozen in liquid nitrogen immediately after surgery and later homogenized with mortar and pestle under liquid nitrogen. Total RNA was prepared from these samples using TRIzol (Invitrogen) or TRI Reagent (Fermentas) followed by a cleanup with RNeasy (QIAGEN); both methods were performed according to the manufacturers' protocols.\nGene expression analysis of the tumor samples was performed by Affymetrix Human Genome (HG) U133A or HG-U133 Plus 2.0 oligonucleotide microarrays (Affymetrix, Santa Clara, Calif., USA). A normal reference kidney sample was hybridized to both array types to achieve direct comparability of all samples.\nBriefly, double-stranded cDNA was synthesized from 5-8 μg of total RNA, using SuperScript RTII (Invitrogen) and the oligo-dT-T7 primer (MWG Biotech, Ebersberg, Germany) as described in the manual. […] Pairwise comparisons were calculated using the respective normal reference kidney array as baseline. […] Relative expression values were calculated from the signal log ratios given by the software and the normal kidney sample was arbitrarily set to 1.0."}, "[6]": {"test_system": "human CD8+ T-cells", "assay": "Artificial APC (pMHC/anti-CD28 bead) priming and expansion of isolated human CD8+ T-cells, MLA-001 tetramer readout", "format": "cell-based", "conditions": "three stimulation cycles, high and low density pMHC, absence of natural antigen presenting cells"}, "[7]": {"test_system": "A498 tumor cells", "conditions": "A498, 24 h; 13 μM sorafenib or 250 nM sunitinib; normal medium control = 100%"}, "[8]": {"conditions": "RCC of one patient, 800 mg Nexavar per day from 35 to 2 days before surgery, normal kidney = 1.0"}, "[9]": {"conditions": "RCC of one patient, 800 mg Nexavar per day from 35 to 2 days before surgery, normal kidney = 1.0, listed as sorafenib"}}, "note": "Entries after “also recorded” stand apart in the source; their conditions may differ. Like-named read-outs stand apart in the source and are kept apart here.", "data": [{"smiles": "CNC(=O)c1cc(Oc2ccc(NC(=O)Nc3ccc(Cl)c(C(F)(F)F)c3)cc2)ccn1", "note": "[Sorafenib, 4-(4-{3-[4-Chloro-3-(trifluoromethyl)phenyl]ureido}phenoxy)-N-methylpyrid-ine-2-carboxamide]", "values": [{"measurement": "OVA-001 specific CD8+ T-cells, mean", "setting": "[1]; 15 mg/kg bw, n=4", "result": 0.72, "unit": "%"}, {"measurement": "OVA-001 specific CD8+ T-cells, mean", "setting": "[1]; 60 mg/kg bw, n=12", "result": 1.81, "unit": "%"}, {"measurement": "Immune response towards OVA-001 compared with vehicle treated controls (in words)", "setting": "[1]", "result": "reduced specific T-cell responses"}, {"measurement": "Immune response towards OVA-001 compared with vehicle treated controls (in words)", "setting": "[1]; listed as sorafenib", "result": "reduced immune response"}, {"measurement": "Baseline proliferation of effector cells", "setting": "[2]", "result": "did not increase"}, {"measurement": "Bioavailability / plasma levels at the used doses", "setting": "[3]", "result": "confirmed to reach plasma levels shown by others to be effective in tumor growth inhibition"}, {"measurement": "Number of CD4+ CD25+ Tregs among total CD4+ cells in PBMCs", "setting": "[4]", "result": "unchanged or even slightly elevated"}, {"measurement": "Expression relative to normal reference kidney: ADFP", "setting": "[5]; [8]", "result": 5.7}, {"measurement": "Expression relative to normal reference kidney: APOL1", "setting": "[5]; [8]", "result": 19.7}, {"measurement": "Expression relative to normal reference kidney: CCND1", "setting": "[5]; [8]", "result": 3.2}, {"measurement": "Expression relative to normal reference kidney: GUCY1A3", "setting": "[5]; [8]", "result": 0.5}, {"measurement": "Expression relative to normal reference kidney: HLA-A", "setting": "[5]; [8]", "result": 0.9}, {"measurement": "Expression relative to normal reference kidney: HLA-B", "setting": "[5]; [8]", "result": 2.1}, {"measurement": "Expression relative to normal reference kidney: HLA-C", "setting": "[5]; [8]", "result": 1.0}, {"measurement": "Expression relative to normal reference kidney: HLA-DPB1", "setting": "[5]; [8]", "result": 4.0}, {"measurement": "Expression relative to normal reference kidney: HLA-DQB1", "setting": "[5]; [8]", "result": 168.9}, {"measurement": "Expression relative to normal reference kidney: HLA-DRB1", "setting": "[5]; [8]", "result": 2.8}, {"measurement": "Expression relative to normal reference kidney: KIAA0367", "setting": "[5]; [8]", "result": 1.2}, {"measurement": "Expression relative to normal reference kidney: MET", "setting": "[5]; [8]", "result": 9.8}, {"measurement": "Expression relative to normal reference kidney: MMP7", "setting": "[5]; [8]", "result": 6.1}, {"measurement": "Expression relative to normal reference kidney: MUC1", "setting": "[5]; [8]", "result": 0.3}, {"measurement": "Expression relative to normal reference kidney: PSMB8", "setting": "[5]; [8]", "result": 3.5}, {"measurement": "Expression relative to normal reference kidney: PSMB9", "setting": "[5]; [8]", "result": 5.7}, {"measurement": "Expression relative to normal reference kidney: RGS5", "setting": "[5]; [8]", "result": 1.5}, {"measurement": "Expression relative to normal reference kidney: TAP1", "setting": "[5]; [8]", "result": 2.1}, {"measurement": "Expression relative to normal reference kidney: GUCY1A3", "setting": "[5]; [9]", "result": "at the lower boundary of the range"}, {"measurement": "Expression relative to normal reference kidney: RGS5", "setting": "[5]; [9]", "result": "at the lower boundary of the range"}, {"measurement": "Expression profile of tumor associated antigens or their HLA presentation in vivo vs range of untreated ccRCC (in words)", "setting": "[5]; one sorafenib-treated patient vs 20 untreated ccRCC, range = mean ± one standard deviation", "result": "lie within this range for most antigens; also recorded: do not provide any evidence for a potential influence"}, {"measurement": "Priming and expansion of MLA-001 specific CD8+ T-cells (% tetramer+ among CD8+ lymphocytes, total number per well)", "setting": "[6]", "result": "no concentration-dependent influence; also recorded: not altered"}, {"measurement": "% Expression relative to control: ADFP", "setting": "[7]", "result": 100, "unit": "%"}, {"measurement": "% Expression relative to control: APOL1", "setting": "[7]", "result": 71, "unit": "%"}, {"measurement": "% Expression relative to control: CCND1", "setting": "[7]", "result": 81, "unit": "%"}, {"measurement": "% Expression relative to control: GUCY1A3", "setting": "[7]", "result": 44, "unit": "%"}, {"measurement": "% Expression relative to control: HLA-A", "setting": "[7]", "result": 100, "unit": "%"}, {"measurement": "% Expression relative to control: HLA-B", "setting": "[7]", "result": 87, "unit": "%"}, {"measurement": "% Expression relative to control: HLA-C", "setting": "[7]", "result": 87, "unit": "%"}, {"measurement": "% Expression relative to control: MET", "setting": "[7]", "result": 62, "unit": "%"}, {"measurement": "% Expression relative to control: MMP7", "setting": "[7]", "result": 25, "unit": "%"}, {"measurement": "% Expression relative to control: MUC1", "setting": "[7]", "result": 107, "unit": "%"}, {"measurement": "% Expression relative to control: PSMB8", "setting": "[7]", "result": 87, "unit": "%"}, {"measurement": "% Expression relative to control: PSMB9", "setting": "[7]", "result": 123, "unit": "%"}, {"measurement": "% Expression relative to control: TAP1", "setting": "[7]", "result": 123, "unit": "%"}]}]}
